Laboratory results: patent publication US8728754B1, “Use of proteins isolated from Pseudomonas to control molluscs” (priority 2013, dated 2014)

What was measured:
[1] = tested on: CL145A (ATCC 55799); assay: Antibiotic resistance profile (antibiotic discs on Mueller-Hinton Agar); details: for Suppresses growth of CL145A: 25° C., 72 hours; for CL145A resistant or sensitive to the antibiotic: antibiotic disc, 72 hours incubation
Procedure: One glycerol stock vial of CL145A was equally distributed onto Mueller-Hinton Agar plates (100 μl per plate) and spread on the plate using a sterile cell spreader. Antibiotic discs were then placed onto the plates along with a blank sterile disc. Plates were incubated at 25° C. in the dark for 72 hours.

[2] = tested on: mussels; assay: Mussel bioassay in scintillation vials; type: in vivo
Procedure: Mussel bioassays were performed in twenty milliliter scintillation vials. Ten small mussels (approximately 1 cm long) were incubated in the mussel water (10 mL) for 24 hr first, then the mussel water (10 mL) was changed freshly before test cell lysis was added. Cell lysis or proteins (maximal 500 μL) was added into each vial. After 24 hr, the mussel water with cell lysis or proteins was changed with clean mussel water. Then, mussel water was changed every 24 hr with clean mussel water. Dead mussels were taken away every day and mussel mortality was calculated by number of dead mussel divided by the number of total mussels.

CC1(C)S[C@@H]2[C@H](NC(=O)[C@H](N)c3ccccc3)C(=O)N2[C@H]1C(=O)O [Ampicillin]
Suppresses growth of CL145A ([1]; 10 μg disc): No | CL145A resistant or sensitive to the antibiotic [1]: resistant

CO/N=C(\C(=O)N[C@@H]1C(=O)N2C(C(=O)O)=C(COC(N)=O)CS[C@H]12)c1ccco1 [Cefuroxime]
Suppresses growth of CL145A ([1]; 30 μg disc): No | CL145A resistant or sensitive to the antibiotic [1]: resistant

O=C(N[C@H](CO)[C@H](O)c1ccc([N+](=O)[O-])cc1)C(Cl)Cl [Chloramphenicol]
Suppresses growth of CL145A ([1]; 30 μg disc): No | CL145A resistant or sensitive to the antibiotic [1]: resistant

CC[C@H]1OC(=O)[C@H](C)[C@@H](O[C@H]2C[C@@](C)(OC)[C@@H](O)[C@H](C)O2)[C@H](C)[C@@H](O[C@@H]2O[C@H](C)C[C@H](N(C)C)[C@H]2O)[C@](C)(O)C[C@@H](C)C(=O)[C@H](C)[C@@H](O)[C@]1(C)O [Erythromycin]
Suppresses growth of CL145A ([1]; 15 μg disc): No | CL145A resistant or sensitive to the antibiotic [1]: resistant

CCN1CCN(C(=O)N[C@@H](C(=O)N[C@@H]2C(=O)N3[C@@H]2SC(C)(C)[C@@H]3C(=O)O)c2ccccc2)C(=O)C1=O [Piperacillin]
Suppresses growth of CL145A ([1]; 100 μg disc): Yes | CL145A resistant or sensitive to the antibiotic [1]: sensitive

[H]/N=C(/N)N[C@H]1[C@H](O)[C@@H](O)[C@H](O[C@@H]2O[C@@H](C)[C@](O)(C=O)[C@H]2O[C@@H]2O[C@@H](CO)[C@H](O)[C@@H](O)[C@@H]2NC)[C@@H](N/C(N)=N\[H])[C@@H]1O [Streptomycin]
Suppresses growth of CL145A ([1]; 10 μg disc): No | CL145A resistant or sensitive to the antibiotic [1]: resistant

Gentamicin
Suppresses growth of CL145A ([1]; 10 μg disc): Yes | CL145A resistant or sensitive to the antibiotic [1]: sensitive

Penicillin
Suppresses growth of CL145A ([1]; 10 μg disc): No | CL145A resistant or sensitive to the antibiotic [1]: resistant

Sulphamethoxazole-Trimethoprim
Suppresses growth of CL145A ([1]; 23.75/25 μg disc): Yes | CL145A resistant or sensitive to the antibiotic [1]: sensitive

fumarate hydratase Class II (or fumarase) [Protein B]
Mussel mortality at 7th day ([2]; 4 ppm, 7th day): 60% | Activity in mussel bioassay of proteins and fractions dosed after gel analysis ([2]; in vivo): active
